Results taken from ChEMBL document CHEMBL3817828, “Design, synthesis and evaluation of novel tetrahydrothieno[3,2-c]pyridine derivatives as potent smoothened antagonists” (Medchemcomm, 2016).

Experiments:
[1] = Inhibition of Hh receptor (unknown origin) expressed in SAG-stimulated mouse NIH3T3 cells incubated for 24 hrs by Gli-luciferase reporter gene assay; type: cell-based; conditions: NIH3T3, 24 h
[2] = target: Protein smoothened (Homo sapiens, UniProt Q99835); experiment: Displacement of BODIPY-cyclopamine from human Smo expressed in HEK293 cells incubated for 3 hrs by fluorescence competitive displacement assay; type: cell-based
Sequence of Protein smoothened (Q99835 whole entry): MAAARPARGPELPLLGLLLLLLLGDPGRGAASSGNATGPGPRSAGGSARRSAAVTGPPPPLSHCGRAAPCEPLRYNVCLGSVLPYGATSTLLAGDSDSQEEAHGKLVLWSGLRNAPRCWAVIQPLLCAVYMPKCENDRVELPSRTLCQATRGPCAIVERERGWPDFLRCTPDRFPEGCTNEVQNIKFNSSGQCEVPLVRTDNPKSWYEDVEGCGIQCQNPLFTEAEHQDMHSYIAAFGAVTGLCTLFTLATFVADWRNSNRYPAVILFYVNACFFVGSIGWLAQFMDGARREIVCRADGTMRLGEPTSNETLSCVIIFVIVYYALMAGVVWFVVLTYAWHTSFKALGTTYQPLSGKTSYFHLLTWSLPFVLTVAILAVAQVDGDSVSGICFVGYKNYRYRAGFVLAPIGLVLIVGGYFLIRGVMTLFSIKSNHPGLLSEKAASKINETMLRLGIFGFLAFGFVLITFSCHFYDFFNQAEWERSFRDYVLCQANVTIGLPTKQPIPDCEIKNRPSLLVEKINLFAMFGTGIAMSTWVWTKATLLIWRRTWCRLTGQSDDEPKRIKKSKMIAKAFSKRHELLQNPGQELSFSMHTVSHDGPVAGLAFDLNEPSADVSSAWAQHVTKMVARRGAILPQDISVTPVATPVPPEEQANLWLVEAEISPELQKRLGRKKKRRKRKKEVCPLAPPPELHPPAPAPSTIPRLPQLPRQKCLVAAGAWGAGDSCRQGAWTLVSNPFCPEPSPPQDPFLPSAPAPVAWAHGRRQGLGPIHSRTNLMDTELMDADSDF

Row | Structure (SMILES) | IC50 [1] | IC50 [2]
1 | Cn1c(-c2cc(N3CCc4sc(C(=O)N5CCN(c6ncccn6)CC5)cc4C3)ccc2Cl)nc2ccccc21 | 0.09 µM | 0.092 µM
2 | Cn1c(-c2cccc(N3CCc4sc(C(=O)N5CCN(c6ncccn6)CC5)cc4C3)c2)nc2ccccc21 | 0.15 µM | 0.237 µM
3 | CC(C)CNC(=O)c1cc2c(s1)CCN(c1cccc(-c3nc4ccccc4n3C)c1)C2 | 1.72 µM | 
4 | Cn1c(-c2cc(N3CCc4sc(C(=O)N5CCOCC5)cc4C3)ccc2Cl)nc2ccccc21 | 0.06 µM | 0.018 µM
5 | Cn1c(-c2cc(N3CCc4sc(C(=O)N5CCCC5)cc4C3)ccc2Cl)nc2ccccc21 | 0.22 µM | 0.315 µM
6 | Cn1c(-c2cccc(N3CCc4sc(C(=O)N5CCN(c6ccccc6)CC5)cc4C3)c2)nc2ccccc21 | 1.32 µM | 
7 | Cn1c(-c2cccc(N3CCc4sc(C(=O)Nc5ccccc5F)cc4C3)c2)nc2ccccc21 | 0.36 µM | 
8 | Cc1ccc(NC(=O)c2cc3c(s2)CCN(c2cccc(-c4nc5ccccc5n4C)c2)C3)cc1 | 1.63 µM | 
9 | CNC(=O)c1cc2c(s1)CCN(c1cccc(-c3nc4ccccc4n3C)c1)C2 | 1.41 µM | 
10 | Cn1c(-c2cccc(N3CCc4sc(C(=O)Nc5cccnc5)cc4C3)c2)nc2ccccc21 | 0.2 µM | 0.261 µM
11 | CC1CCCCN1C(=O)c1cc2c(s1)CCN(c1cccc(-c3nc4ccccc4n3C)c1)C2 (centres undefined) | 0.33 µM | 
12 | Cn1c(-c2cc(N3CCc4sc(C(=O)N5CCC(O)CC5)cc4C3)ccc2Cl)nc2ccccc21 | 0.19 µM | 0.192 µM
13 | COc1ccccc1N1CCN(C(=O)c2cc3c(s2)CCN(c2cccc(-c4nc5ccccc5n4C)c2)C3)CC1 | 2.35 µM | 
14 | Cn1c(-c2cccc(N3CCc4sc(C(=O)N5CCN(C(=O)c6ccco6)CC5)cc4C3)c2)nc2ccccc21 | 0.49 µM | 
15 | CCN(CC)C(=O)c1cc2c(s1)CCN(c1cccc(-c3nc4ccccc4n3C)c1)C2 | 1.34 µM | 
16 | Cn1c(-c2cccc(N3CCc4sc(C(=O)N5CCN(c6cccc(C(F)(F)F)c6)CC5)cc4C3)c2)nc2ccccc21 | 1.76 µM | 
17 | CN1CCN(C(=O)c2cc3c(s2)CCN(c2cccc(-c4nc5ccccc5n4C)c2)C3)CC1 | 0.17 µM | 0.326 µM
18 | Cn1c(-c2cc(N3CCc4sc(C(=O)Nc5cccnc5)cc4C3)ccc2Cl)nc2ccccc21 | 0.14 µM | 0.056 µM
19 | Cn1c(-c2cccc(N3CCc4sc(C(=O)N5CCN(C(=O)OC(C)(C)C)CC5)cc4C3)c2)nc2ccccc21 | 2.08 µM | 
20 | CN(C)C(=O)c1cc2c(s1)CCN(c1cccc(-c3nc4ccccc4n3C)c1)C2 | 1.56 µM | 
21 | Cn1c(-c2cccc(N3CCc4sc(C(=O)N5CCN(c6ccccc6F)CC5)cc4C3)c2)nc2ccccc21 | 0.76 µM | 
22 | Cn1c(-c2cccc(N3CCc4sc(C(=O)N5CCN(c6ccc(Cl)c(Cl)c6)CC5)cc4C3)c2)nc2ccccc21 | 0.27 µM | 0.456 µM

Row | Structure (SMILES) | IC50 [1] | IC50 [2]
23 | CC(=O)N1CCN(C(=O)c2cc3c(s2)CCN(c2cccc(-c4nc5ccccc5n4C)c2)C3)CC1 | 0.37 µM | 
24 | Cn1c(-c2cccc(N3CCc4sc(C(=O)N5CCN(c6ccccn6)CC5)cc4C3)c2)nc2ccccc21 | 0.34 µM | 
25 | Cn1c(-c2cccc(N3CCc4sc(C(=O)N5CCC(O)CC5)cc4C3)c2)nc2ccccc21 | 0.28 µM | 0.431 µM
26 | Cn1c(-c2cccc(N3CCc4sc(C(=O)Nc5ccc(Br)cc5)cc4C3)c2)nc2ccccc21 | 0.45 µM | 
27 | COc1cccc(NC(=O)c2cc3c(s2)CCN(c2cccc(-c4nc5ccccc5n4C)c2)C3)c1 | 0.66 µM | 
28 | Cc1ccc(NC(=O)c2cc3c(s2)CCN(c2cccc(-c4nc5ccccc5n4C)c2)C3)cc1Cl | 0.31 µM | 
29 | Cn1c(-c2cccc(N3CCc4sc(C(=O)N5CCN(S(C)(=O)=O)CC5)cc4C3)c2)nc2ccccc21 | 0.22 µM | 0.373 µM
30 | Cn1c(-c2cccc(N3CCc4sc(C(=O)N5CCN(C(c6ccccc6)c6ccccc6)CC5)cc4C3)c2)nc2ccccc21 | > 15 µM | 
31 | CS(=O)(=O)c1ccc(C(=O)Nc2ccc(Cl)c(-c3ccccn3)c2)c(Cl)c1 [VISMODEGIB] | 0.025 µM | 
32 | Cn1c(-c2cccc(N3CCc4sc(C(=O)Nc5ccc(F)c(Br)c5)cc4C3)c2)nc2ccccc21 | 0.35 µM | 
33 | Cn1c(-c2cc(N3CCc4sc(C(=O)N5CCN(S(C)(=O)=O)CC5)cc4C3)ccc2Cl)nc2ccccc21 | 0.24 µM | 0.217 µM
34 | CCN1CCN(C(=O)c2cc3c(s2)CCN(c2cccc(-c4nc5ccccc5n4C)c2)C3)CC1 | 0.35 µM | 
35 | CN1CCN(C(=O)c2cc3c(s2)CCN(c2ccc(Cl)c(-c4nc5ccccc5n4C)c2)C3)CC1 | 0.13 µM | 0.135 µM
36 | COc1ccc(N2CCN(C(=O)c3cc4c(s3)CCN(c3cccc(-c5nc6ccccc6n5C)c3)C4)CC2)cc1 | 1.26 µM | 
37 | Cn1c(-c2cccc(N3CCc4sc(C(=O)N5CCCC5)cc4C3)c2)nc2ccccc21 | 0.26 µM | 0.352 µM
38 | Cn1c(-c2cc(N3CCc4sc(C(=O)N5CCN(c6ccc(Cl)c(Cl)c6)CC5)cc4C3)ccc2Cl)nc2ccccc21 | 0.16 µM | 0.213 µM
39 | Cn1c(-c2cccc(N3CCc4sc(C(=O)Nc5ccc(F)c(F)c5)cc4C3)c2)nc2ccccc21 | 0.27 µM | 
40 | Cn1c(-c2cccc(N3CCc4sc(C(=O)Nc5ccccc5)cc4C3)c2)nc2ccccc21 | 0.85 µM | 
41 | Cn1c(-c2cccc(N3CCc4sc(C(=O)N5CCN(c6ccc(F)cc6)CC5)cc4C3)c2)nc2ccccc21 | 0.32 µM | 
42 | Cn1c(-c2cccc(N3CCc4sc(C(=O)N5CCOCC5)cc4C3)c2)nc2ccccc21 | 0.21 µM | 0.294 µM
43 | Cn1c(-c2cccc(N3CCc4sc(C(=O)N5CCN(c6cccc(Cl)c6)CC5)cc4C3)c2)nc2ccccc21 | 0.38 µM | 
